Key:
[1] = test system: MFE-296 (Endometrial Carcinoma); test: combination Emax (second highest fraction inhibited in the dose matrix, 72 h); higher = more inhibition; extreme values may be limits of the assay
Method in brief: (§1)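 Bliss excess equals the observed combination effect minus the expected value EA + EB − EA·EB, where EA and EB are the effects of each agent alone. Combination Emax is the second-highest inhibition within the matrix. Inhibition was scaled from CellTiter-Glo 2.0 luminescence, with 0 set by vehicle wells and 1 by blank wells, after 72 hours of two-drug dosing of cells plated in 1536-well plates.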

[2] = test system: MDA-MB-361 (Breast Carcinoma); test: as above
Method in brief: as §1

[3] = test system: OVCA420 (Ovarian Carcinoma); test: as above
Method in brief: as §1

[4] = test system: DEL (T-Cell Non-Hodgkin's Lymphoma); test: as above
Method in brief: as §1

[5] = test system: KP-1N (Pancreatic Carcinoma); test: as above
Method in brief: as §1

[6] = test system: RC-K8 (B-Cell Non-Hodgkin's Lymphoma); test: as above
Method in brief: as §1

[7] = test system: HCC1806 (Breast Carcinoma); test: as above
Method in brief: as §1

[8] = test system: B-CPAP (Thyroid Gland Carcinoma); test: as above
Method in brief: as §1

[9] = test system: LU-135 (Small Cell Lung Carcinoma); test: as above
Method in brief: as §1

[10] = test system: COLO-205 (Colorectal Carcinoma); test: as above
Method in brief: as §1

AGS (Gastric Carcinoma) [11] = test: as above
Method in brief: as §1

[12] = test system: HuP-T4 (Pancreatic Carcinoma); test: as above
Method in brief: as §1

[13] = test system: KYSE-520 (Esophageal Squamous Cell Carcinoma); test: as above
Method in brief: as §1

NOS-1 (Osteosarcoma) [14] = test: as above
Method in brief: as §1

[15] = test system: Daoy (Other Solid Carcinomas); test: as above
Method in brief: as §1

[16] = test system: TCCSUP (Bladder Carcinoma); test: as above
Method in brief: as §1

[17] = test system: SNU-5 (Gastric Carcinoma); test: as above
Method in brief: as §1

ES4 (Ewing's Sarcoma) [18] = test: as above
Method in brief: as §1

[19] = test system: SK-ES-1 (Ewing's Sarcoma); test: as above
Method in brief: as §1

[20] = test system: LNCaP-Clone-FGC (Prostate Carcinoma); test: as above
Method in brief: as §1

42-MG-BA (Glioblastoma) [21] = test: as above
Method in brief: as §1

[22] = test system: EC-GI-10 (Esophageal Squamous Cell Carcinoma); test: as above
Method in brief: as §1

[23] = test system: MFE-296 (Endometrial Carcinoma); test: Bliss excess, mean over the matrix (fraction); higher = more synergy
Method in brief: as §1

[24] = test system: MDA-MB-361 (Breast Carcinoma); test: as above
Method in brief: as §1

[25] = test system: OVCA420 (Ovarian Carcinoma); test: as above
Method in brief: as §1

[26] = test system: DEL (T-Cell Non-Hodgkin's Lymphoma); test: as above
Method in brief: as §1

[27] = test system: KP-1N (Pancreatic Carcinoma); test: as above
Method in brief: as §1

[28] = test system: RC-K8 (B-Cell Non-Hodgkin's Lymphoma); test: as above
Method in brief: as §1

[29] = test system: HCC1806 (Breast Carcinoma); test: as above
Method in brief: as §1

[30] = test system: B-CPAP (Thyroid Gland Carcinoma); test: as above
Method in brief: as §1

[31] = test system: LU-135 (Small Cell Lung Carcinoma); test: as above
Method in brief: as §1

[32] = test system: COLO-205 (Colorectal Carcinoma); test: as above
Method in brief: as §1

AGS (Gastric Carcinoma) [33] = test: as above
Method in brief: as §1

[34] = test system: HuP-T4 (Pancreatic Carcinoma); test: as above
Method in brief: as §1

[35] = test system: KYSE-520 (Esophageal Squamous Cell Carcinoma); test: as above
Method in brief: as §1

NOS-1 (Osteosarcoma) [36] = test: as above
Method in brief: as §1

[37] = test system: Daoy (Other Solid Carcinomas); test: as above
Method in brief: as §1

[38] = test system: TCCSUP (Bladder Carcinoma); test: as above
Method in brief: as §1

[39] = test system: SNU-5 (Gastric Carcinoma); test: as above
Method in brief: as §1

ES4 (Ewing's Sarcoma) [40] = test: as above
Method in brief: as §1

[41] = test system: SK-ES-1 (Ewing's Sarcoma); test: as above
Method in brief: as §1

[42] = test system: LNCaP-Clone-FGC (Prostate Carcinoma); test: as above
Method in brief: as §1

42-MG-BA (Glioblastoma) [43] = test: as above
Method in brief: as §1

[44] = test system: EC-GI-10 (Esophageal Squamous Cell Carcinoma); test: as above
Method in brief: as §1

CC(=O)c1c(C)c2cnc(Nc3ccc(N4CCNCC4)cn3)nc2n(C2CCCC2)c1=O [Palbociclib] + CN(CC[C@H](CSC1=CC=CC=C1)NC2=C(C=C(C=C2)S(=O)(=O)NC(=O)C3=CC=C(C=C3)N4CCC(CC4)[C@H](C5=CC=CC=C5C6=CC=C(C=C6)Cl)O)S(=O)(=O)C(F)(F)F)CCO [AZD4320] (first compound max 10 µM, 7x7, partner max 1 µM)
combination Emax [1]: 0.293 | combination Emax [2]: 0.185 | combination Emax [3]: 0.21 | combination Emax [4]: 0.916 | combination Emax [5]: 0.27 | combination Emax [6]: 0.838 | combination Emax [7]: 0.442 | combination Emax [8]: 0.59 | combination Emax [9]: 1 | combination Emax [10]: 0.868 | combination Emax (AGS (Gastric Carcinoma) [11]): 0.823 | combination Emax [12]: 0.208 | combination Emax [13]: 0.477 | combination Emax (NOS-1 (Osteosarcoma) [14]): 0.952 | combination Emax [15]: 0.368 | combination Emax [16]: 0.364 | combination Emax [17]: 0.334 | combination Emax (ES4 (Ewing's Sarcoma) [18]): 0.485 | combination Emax [19]: 0.956 | combination Emax [20]: 0.534 | combination Emax (42-MG-BA (Glioblastoma) [21]): 0.511 | combination Emax [22]: 0.493 | Bliss excess [23]: -0.0227 | Bliss excess [24]: -0.0078 | Bliss excess [25]: -0.0591 | Bliss excess [26]: -0.0135 | Bliss excess [27]: -0.0305 | Bliss excess [28]: 0.0351 | Bliss excess [29]: -0.0398 | Bliss excess [30]: -0.0241 | Bliss excess [31]: 0.0316 | Bliss excess [32]: -0.0497 | Bliss excess (AGS (Gastric Carcinoma) [33]): -0.008 | Bliss excess [34]: -0.0026 | Bliss excess [35]: -0.0557 | Bliss excess (NOS-1 (Osteosarcoma) [36]): 0.0414 | Bliss excess [37]: 0.0118 | Bliss excess [38]: -0.0607 | Bliss excess [39]: -0.0446 | Bliss excess (ES4 (Ewing's Sarcoma) [40]): -0.113 | Bliss excess [41]: 0.0334 | Bliss excess [42]: -0.0902 | Bliss excess (42-MG-BA (Glioblastoma) [43]): -0.061 | Bliss excess [44]: -0.0715

C[C@@H](c1ccc2nccn2c1)n1nnc2ncc(-c3cnn(C)c3)nc21 [Savolitinib] + CN(CC[C@H](CSC1=CC=CC=C1)NC2=C(C=C(C=C2)S(=O)(=O)NC(=O)C3=CC=C(C=C3)N4CCC(CC4)[C@H](C5=CC=CC=C5C6=CC=C(C=C6)Cl)O)S(=O)(=O)C(F)(F)F)CCO [AZD4320] (first compound max 1 µM, 7x7, partner max 1 µM)
combination Emax [1]: 0.2 | combination Emax [2]: 0.114 | combination Emax [3]: 0.192 | combination Emax [4]: 0.217 | combination Emax [5]: 0.175 | combination Emax [6]: 0.504 | combination Emax [7]: 0.436 | combination Emax [8]: 0.276 | combination Emax [9]: 1 | combination Emax [10]: 0.566 | combination Emax (AGS (Gastric Carcinoma) [11]): 0.377 | combination Emax [12]: 0.124 | combination Emax [13]: 0.2 | combination Emax (NOS-1 (Osteosarcoma) [14]): 0.506 | combination Emax [15]: 0.139 | combination Emax [16]: 0.194 | combination Emax [17]: 1 | combination Emax (ES4 (Ewing's Sarcoma) [18]): 0.557 | combination Emax [19]: 0.758 | combination Emax [20]: 0.258 | combination Emax (42-MG-BA (Glioblastoma) [21]): 0.222 | combination Emax [22]: 0.27 | Bliss excess [23]: -0.0181 | Bliss excess [24]: -0.0425 | Bliss excess [25]: -0.0691 | Bliss excess [26]: -0.0318 | Bliss excess [27]: -0.0755 | Bliss excess [28]: -0.0478 | Bliss excess [29]: -0.0031 | Bliss excess [30]: 0.0041 | Bliss excess [31]: 0.0057 | Bliss excess [32]: -0.043 | Bliss excess (AGS (Gastric Carcinoma) [33]): -0.0353 | Bliss excess [34]: -0.0544 | Bliss excess [35]: -0.0298 | Bliss excess (NOS-1 (Osteosarcoma) [36]): -0.0137 | Bliss excess [37]: -0.0547 | Bliss excess [38]: -0.0469 | Bliss excess [39]: 0.029 | Bliss excess (ES4 (Ewing's Sarcoma) [40]): -0.0622 | Bliss excess [41]: -0.0692 | Bliss excess [42]: -0.0205 | Bliss excess (42-MG-BA (Glioblastoma) [43]): -0.0553 | Bliss excess [44]: 0.0005

— the supplement of paper PMC11061612
